US20100086483A1, “METHOD OF MULTIDETECTOR COMPUTED TOMAGRAPHY” (Gilead Palo Alto, Inc., priority 2008, published 2010)

Experiments:
conscious dogs [1] = test: Effects of caffeine alone on MAP and HR in conscious dogs (Part I); type: in vivo, dog
Experimental: Sixteen chronically instrumented male mongrel dogs weighing from 22-30 kg were used in the study. The animal protocol was approved by the Institutional Animal Care and Use Committee of New York Medical College and conforms to the Guide for the Care and Use of Laboratory Animal by the United States National Institutes of Health.
Dogs were sedated with acepromazine (0.3 mg/kg, IM) and anesthetized with pentobarbital sodium (25 mg/kg, IV). After intubation, dogs were artificially ventilated with room air. A thoracotomy was made in the fifth intercostal space using sterile techniques. A Tygon catheter (Cardiovascular Instruments, Wakefield, Mass.) was inserted into the descending thoracic aorta and another one was inserted into the left atrium. In 9 dogs, an ultrasound flow transducer (Transonic Systems, Ithaca, N.Y.) was placed around the left circumflex coronary artery. A solid-state pressure gauge (P6.5, Konisberg Instruments, Pasadena, Calif.) was placed into the left ventricle through the apex. The chest was closed in layers. The catheters and wires were tunneled subcutaneously and externalized through the skin at the back of the dog's neck. Dogs were allowed to recover from the surgery before experiments were performed, and were trained to lie on a table.
Phasic arterial pressure was measured by connecting the aortic catheter to a strain gauge transducer (P23 ID, LDS Test and Measurement, Valley View, Ohio). Left ventricular pressures were measured by the solid pressure gauge. CBF (mL/min) was measured from an ultrasound flow transducer using a Transonic flowmeter (T206, Transonic Systems, Ithaca, N.Y.). Two indices were used to describe the regadenoson-induced coronary vasodilation: 1) the maximum increase in CBF and 2) the duration of the 2-fold increase in CBF (the period of time that CBF was elevated to a level ≧2-fold of baseline CBF). All pressure and flow data were acquired and analyzed using a Ponemah System (Version 3.30 or 4.20, LDS Test and Measurement, Valley View, Ohio). MAP and HR were calculated from phasic blood pressure, and LV dP/dtMax was calculated from the left ventricular systolic pressure.
On the day of an experiment, a dog was placed on a table, where it lay quietly during the experiment. A catheter was inserted into a peripheral vein in the leg and attached to an infusion line to administer drugs without disturbing the dog. The experiment was begun after MAP, HR and CBF were stable.
(§1) Three experiments were performed on each dog in the group.
The statistical significance of a difference between the value of a parameter at baseline and at the indicated time point after drug administration was determined using a One-Way Repeated Measures ANOVA followed by Tukey's Test. […] Results with p<0.05 were considered to be significant. A computer-based software package (SigmaStat 2.03) was used for statistical analysis. All data are presented as Mean±SEM.

[2] = Plasma caffeine concentrations in conscious dogs; type: in vivo; details: dog, intravenous, 10 mg/kg
Experimental: as §1
(§2) Each dog received an IV injection of 5 μg/kg of regadenoson. […] LVSP, LV dP/dtMax, MAP, HR and CBF were recorded continuously. Blood samples were taken from the left atrial catheter at 1, 3, 5, 15, 30, 45 and 60 min following injections of regadenoson.

conscious dogs [3] = test: Effects of regadenoson on HR and CBF before and after metoprolol in conscious dogs; type: in vivo, dog; details: for duration of two-fold increase in CBF: in the presence of metoprolol 1.5 mg/kg
Experimental: Five mongrel dogs were chronically instrumented for measurements of systemic hemodynamics and coronary blood flow (CBF). The effects of regadenoson (1, 2.5 and 5 μg/kg, IV) on HR and CBF were assessed before and after administration of the β1-adrenergic receptor blocker metoprolol (1.5 mg/kg). Values of peak CBF and the duration of the two-fold increase in CBF above baseline were used to assess Reg-induced coronary vasodilation.

[4] = Plasma regadenoson concentrations in conscious dogs; type: in vivo, dog
Experimental: as §2

[5] = Reg 1 μg/kg IV, before metoprolol
[6] = Reg 2.5 μg/kg IV, before metoprolol
[7] = Reg 5 μg/kg IV, before metoprolol

With Cn1c(=O)c2c(ncn2C)n(C)c1=O [Caffeine, caffeine] the “changes in MAP and HR” value (conscious dogs [1]; caffeine 2 mg/kg IV) was “no significant changes”, the HR (conscious dogs [1]; caffeine 2 mg/kg IV, 2.5 min) was 95 ± 5 beats/min and the HR (conscious dogs [1]; caffeine 2 mg/kg IV, 5 min) was 91 ± 5 beats/min. For the same compound, the HR (conscious dogs [1]; caffeine 2 mg/kg IV, 15 min) was 85 ± 6 beats/min, the HR (conscious dogs [1]; caffeine 2 mg/kg IV, 30 min) was 81 ± 7 beats/min and the HR (conscious dogs [1]; caffeine 2 mg/kg IV, 60 min) was 90 ± 9 beats/min. For the same compound, the HR (conscious dogs [1]; caffeine 2 mg/kg IV, 90 min) was 87 ± 5 beats/min, the HR (conscious dogs [1]; caffeine 2 mg/kg IV, 120 min) was 88 ± 6 beats/min and the “change in HR” value (conscious dogs [1]; caffeine 4 mg/kg IV) was “without a significant change”. For the same compound, the HR (conscious dogs [1]; caffeine 4 mg/kg IV, 2.5 min) was 104 ± 5 beats/min, the HR (conscious dogs [1]; caffeine 4 mg/kg IV, 5 min) was 102 ± 4 beats/min and the HR (conscious dogs [1]; caffeine 4 mg/kg IV, 15 min) was 88 ± 6 beats/min. The MAP (conscious dogs [1]; caffeine 4 mg/kg IV, 15 min) was 99 ± 4 mm Hg, the HR (conscious dogs [1]; caffeine 4 mg/kg IV, 30 min) was 90 ± 7 beats/min and the HR (conscious dogs [1]; caffeine 4 mg/kg IV, 60 min) was 85 ± 7 beats/min. For the same compound, the HR (conscious dogs [1]; caffeine 4 mg/kg IV, 90 min) was 90 ± 7 beats/min, the HR (conscious dogs [1]; caffeine 4 mg/kg IV, 120 min) was 86 ± 5 beats/min and the “increase in MAP” value (conscious dogs [1]; caffeine 4 mg/kg IV, at both 2.5 and 5 min after injection) was roughly 12 mm Hg. It also gave an HR (conscious dogs [1]; caffeine 10 mg/kg IV, 2.5 min) of 100 ± 4 beats/min, an HR (conscious dogs [1]; caffeine 10 mg/kg IV, 5 min) of 101 ± 4 beats/min and an HR (conscious dogs [1]; caffeine 10 mg/kg IV, 15 min) of 93 ± 5 beats/min. It also gave an HR (conscious dogs [1]; caffeine 10 mg/kg IV, 30 min) of 87 ± 5 beats/min, an MAP (conscious dogs [1]; caffeine 10 mg/kg IV, 30 min) of 101 ± 3 mm Hg and an HR (conscious dogs [1]; caffeine 10 mg/kg IV, 60 min) of 83 ± 2 beats/min. It also gave an HR (conscious dogs [1]; caffeine 10 mg/kg IV, 90 min) of 80 ± 5 beats/min, an HR (conscious dogs [1]; caffeine 10 mg/kg IV, 120 min) of 80 ± 4 beats/min and an MAP (conscious dogs [1]; caffeine 10 mg/kg IV, 120 min) of 102 ± 2 mm Hg. For the same compound, the concentration at 45 min [2] was 52 ± 2 µM.

With CNC(=O)c1cnn(-c2nc(N)c3ncn([C@@H]4O[C@H](CO)[C@@H](O)[C@H]4O)c3n2)c1 [Regadenoson, (1-{9-[(4S,2R,3R,5R)-3,4-dihydroxy-5-(hydroxymethyl)oxolan-2-yl]-6-aminopurin-2-yl}pyrazol-4-yl)-N-methylcarboxamide] the “increase in HR (ΔHR)” value (conscious dogs [3]; Reg 1 μg/kg IV, after metoprolol 1.5 mg/kg IV) was 19±4 bpm, the “duration of 2-fold increase in CBF” value (conscious dogs [3]; [5]) was 93 ± 22 s and the “increase in HR (ΔHR)” value (conscious dogs [3]; [5]) was 49±8 bpm. The “increase in peak CBF (ΔCBF)” value (conscious dogs [3]; [5]) was 129 ± 10 mL/min, the “duration of two-fold increase in CBF” value (conscious dogs [3]; Reg 1 μg/kg IV) was 71 ± 34 s and the “increase in peak CBF (ΔCBF)” value (conscious dogs [3]; Reg 1 μg/kg IV, in the presence of metoprolol 1.5 mg/kg (NS)) was 112 ± 5 mL/min. The “increase in HR (ΔHR)” value (conscious dogs [3]; Reg 2.5 μg/kg IV, after metoprolol 1.5 mg/kg IV) was 28±3 bpm, the “duration of 2-fold increase in CBF” value (conscious dogs [3]; [6]) was 316 ± 57 s and the “increase in HR (ΔHR)” value (conscious dogs [3]; [6]) was 63±5 bpm. The “increase in peak CBF (ΔCBF)” value (conscious dogs [3]; [6]) was 149 ± 7 mL/min, the “duration of two-fold increase in CBF” value (conscious dogs [3]; Reg 2.5 μg/kg IV) was 215 ± 45 s and the “increase in peak CBF (ΔCBF)” value (conscious dogs [3]; Reg 2.5 μg/kg IV, in the presence of metoprolol 1.5 mg/kg (NS)) was 136 ± 16 mL/min. The “increase in HR (ΔHR)” value (conscious dogs [3]; Reg 5 μg/kg IV, after metoprolol 1.5 mg/kg IV) was 39±5 bpm, the “duration of 2-fold increase in CBF” value (conscious dogs [3]; [7]) was 593 ± 86 s and the “increase in HR (ΔHR)” value (conscious dogs [3]; [7]) was 71±7 bpm. For the same compound, the “increase in peak CBF (ΔCBF)” value (conscious dogs [3]; [7]) was 174 ± 10 mL/min, the “duration of two-fold increase in CBF” value (conscious dogs [3]; Reg 5 μg/kg IV) was 364 ± 86 s and the “increase in peak CBF (ΔCBF)” value (conscious dogs [3]; Reg 5 μg/kg IV, in the presence of metoprolol 1.5 mg/kg (p<0.05)) was 138 ± 9 mL/min. The “pharmacokinetic profiles of regadenoson in presence of caffeine” value ([4]; caffeine at 1, 2, 4 or 10 mg/kg) was “not changed” and the “time of peak plasma regadenoson concentration” value ([4]; regadenoson 5 μg/kg IV, absence of caffeine) was roughly 1 min.
